The values below are quoted from earlier work in US20230233510A1, “CYSTEINE PROTEASE INHIBITORS FOR USE IN THE PREVENTION AND/OR TREATMENT OF CORONAVIRUS” (ALBERT-LUDWIGS-UNIVERSITÄT FREIBURG, priority 2020, published 2023).

For one series, the system named is SARS-CoV. The following applies: HeLa cells expressing ACE2 and TMPRSS2.
Series [1] deals with human coronavirus NL63 (HCoV-NL63). The following applies: HeLa cells expressing ACE2 and TMPRSS2.

With `CN(C)C(=O)COC(=O)Cc1ccc(OC(=O)c2ccc(NC(=N)N)cc2)cc1` [camostat, (4-{2-[2-(Dimethylamino)-2-oxoethoxy]-2-oxoethyl}phenyl)(4-carbamimidamidobenzoate)], the block of infection entry (in the series on SARS-CoV; in series [1]) was “partially blocked infection” in each case.
